Among the data in patent US9695198B2, “Factor IXa inhibitors” (MERCK SHARP & DOHME CORP., priority 2012, dated 2017) are IC50 values, retold here.

The structures appear in SMILES notation.

Sequence of Factor IXa (P00740 227-461 limits assumed): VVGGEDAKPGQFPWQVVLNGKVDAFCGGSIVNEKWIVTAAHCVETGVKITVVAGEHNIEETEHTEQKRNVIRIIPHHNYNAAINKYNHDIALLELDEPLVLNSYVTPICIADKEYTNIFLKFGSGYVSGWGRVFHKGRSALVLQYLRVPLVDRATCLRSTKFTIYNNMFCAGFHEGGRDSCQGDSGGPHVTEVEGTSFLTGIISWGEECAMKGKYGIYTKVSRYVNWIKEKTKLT
Sequence of Factor IXa (P00740 47-191 partner limits assumed): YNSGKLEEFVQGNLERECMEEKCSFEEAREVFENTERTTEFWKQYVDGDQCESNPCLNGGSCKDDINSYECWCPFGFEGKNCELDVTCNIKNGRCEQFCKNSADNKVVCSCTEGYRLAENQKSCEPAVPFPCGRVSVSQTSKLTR

The experiment deals with Factor IXa (Homo sapiens, UniProt P00740). The experiment in a line: Determination of inhibitory activity against Factor IXa (cleavage of fluorescent peptide CH3SO2-D-CHG-Gly-Arg-AFC). It is filed as biochemical. Particulars: Factor IXa Inhibition table; low enzyme format; read-out: FIXa Low Enzyme. The procedure:
Determination of Inhibitory Activity Against Factor IXa
Formation of a clot to stem bleeding at a site of blood vessel injury involves the coordinated activity of a group of plasma proteins that initiate and propagate fibrin formation and subsequently protect fibrin from premature degradation. Factor IX is a key component of the plasma system that forms a fibrin clot at a site of vascular injury. The activity of Factor IXa is measured by monitoring the cleavage of the fluorescent peptide, CH3SO2-D-CHG-Gly-Arg-AFC.AcOH (“CHG” is cyclohexyl-glycine and “AFC” is trifluoro aminomethyl coumarin). Factor IXa cleaves the amide bond between Arg and AFC, thereby releasing the AFC fluorophore. The free AFC can be detected with a fluorescence detector at an excitation wavelength of 405 nm and emission wavelength of 510 nm.
Take `COc1cc(-n2ccc(N3CCO[C@H]([C@@H](O)c4nc(=O)c5c(ccc6c(N)nsc65)[nH]4)C3=O)n2)ccn1` [Example 5, (R)-2-((S)-(3-Amino-9-oxo-6,9-dihydroisothiazolo[5,4-f]quinazolin-7-yl)(hydroxy)methyl)-4-(1-(2-methoxypyridin-4-yl)-1H-pyrazol-3-yl)morpholin-3-one]: the IC50 is 0.0108 µM. For the molecule `Cc1cc(N2CCO[C@H]([C@@H](O)c3nc(=O)c4c(ccc5c(N)nsc54)[nH]3)C2=O)nn1C` [Example 14, (R)-2-((S)-(3-Amino-9-oxo-6,9-dihydroisothiazolo[5,4-f]quinazolin-7-yl)(hydroxy)methyl)-4-(1,5-dimethyl-1H-pyrazol-3-yl)morpholin-3-one], the IC50 is 0.0437 µM. On to `CC(=O)OC1(c2cccc(N3CCO[C@H]([C@@H](O)c4nc(=O)c5c(ccc6c(N)nsc65)[nH]4)C3=O)n2)CCC1` [Example 23, 1-(6-((R)-2-((S)-(3-Amino-9-oxo-6,9-dihydroisothiazolo[5,4-f]quinazolin-7-yl)(hydroxy)methyl)-3-oxomorpholino)pyridin-2-yl)cyclobutyl acetate], for which the IC50 amounted to 0.0315 µM.
